Reference: patent US20260028348A1, “MODULATORS OF TNF-ALPHA ACTIVITY” (Forward Therapeutics, Inc., priority 2023, published 2026)

System: HEK Blue™ TNFα reporter cells
Assay: TNF-α Induced HEK Blue Cellular Assay
Type: cell-based
Conditions: TNF-α stimulated HEK Blue TNFα reporter cells, 24 hrs, secreted alkaline phosphatase (QUANTI-Blue, 620 nm)
Procedure: Test articles were diluted in DMSO and serially diluted into 384 well assay plate (Corning 3765), at final concentrations ranging from […] to 0.5 nM. HEK Blue™ TNFα reporter cells were added at a final density of 10,000 cell per well in assay media [DMEM (Gibco, cat #21063-029), 10% fetal bovine serum (ExcelBio, cat #FND500), 1% Penicillin-Streptomycin (Solarbio, cat #P1400-100]. TNF-α (R&D 210-TA-020/CF) was then added to the assay plate at a final concentration of […]. This plate was then incubated for 24 hrs at 37° C. and 5% CO2. Secreted alkaline phosphatase expression was then measured using QUANTI-Blue™(Invivogen), according to manufacturer instructions and read on an Envision microplate reader at 620 nm.
Inhibition data for test compound over a range of concentration was plotted as percentage inhibition of the test compound (100%=maximum inhibition). IC50 values were determined after correcting for background [(sample read-mean of low control)/(mean of high control-mean of low control)] whereby the low control is DMSO without stimulation and high control is DMSO with stimulation. The IC50 is defined as the concentration of test compound which produces […] and was quantified using the 4 parameter logistic equation to fit the data.

SMILES | IC50
CN1C(=O)c2cccc(OC(F)F)c2[C@H]2C[C@@H]1c1nc3ccc(-c4cnc5c(c4)OC[C@@]5(C)N)cc3n12 (single isomer, unassigned) [Example 58] | < 0.1 µM
[2H]C([2H])([2H])N1C(=O)c2cccc(OC(F)F)c2[C@H]2C[C@@H]1c1nc3ccc(-c4cnc5c(c4)OC[C@@]5(C)N)nc3n12 (single isomer, unassigned) [Example 59] | 10 to 30 µM
[2H]C([2H])([2H])N1C(=O)c2cccc(OC(F)F)c2[C@H]2C[C@@H]1c1nc3ccc(-c4cnc5c(c4)OC[C@]5(C)N)nc3n12 (single isomer, unassigned) [Example 60] | 0.1 to 1 µM
[2H]C([2H])([2H])N1C(=O)c2cccc(OC(F)F)c2[C@H]2C[C@@H]1c1nc3cc(F)c(-c4cnc5c(c4)OC[C@@]5(C)N)cc3n12 (single isomer, unassigned) [Example 61] | < 0.1 µM
[2H]C([2H])([2H])N1C(=O)c2cccc(OC(F)F)c2[C@H]2C[C@@H]1c1nc3cc(F)c(-c4cnc5c(c4)OC[C@]5(C)N)cc3n12 (single isomer, unassigned) [Example 62] | < 0.1 µM
[2H]C([2H])([2H])N1C(=O)c2cccc(OC(F)F)c2[C@H]2C[C@@H]1c1nc3ccc(-c4cnc5c(c4)OC[C@@]5(C)O)nc3n12 (single isomer, unassigned) [Example 63] | 0.1 to 1 µM
[2H]C([2H])([2H])N1C(=O)c2cccc(OC(F)F)c2[C@H]2C[C@@H]1c1nc3ccc(-c4cnc5c(c4)OC[C@]5(C)O)nc3n12 (single isomer, unassigned) [Example 64] | 0.1 to 1 µM
[2H]C([2H])([2H])N1C(=O)c2cccc(OC(F)F)c2[C@H]2C[C@@H]1c1nc3ccc(-c4cnc5c(c4)OC[C@@]5(C)N)c(F)c3n12 (single isomer, unassigned) [Example 65] | < 0.1 µM
[2H]C([2H])([2H])N1C(=O)c2cccc(OC(F)F)c2[C@H]2C[C@@H]1c1nc3ccc(-c4cnc5c(c4)OC[C@]5(C)N)c(F)c3n12 (single isomer, unassigned) [Example 66] | < 0.1 µM
[2H]C([2H])([2H])N1C(=O)c2cccc(OC(F)F)c2[C@H]2C[C@@H]1c1nc3ccc(-c4cnc5c(c4)CC[C@@]5(C)O)nc3n12 (single isomer, unassigned) [Example 67] | 10 to 30 µM
[2H]C([2H])([2H])N1C(=O)c2cccc(OC(F)F)c2[C@H]2C[C@@H]1c1nc3ccc(-c4cnc5c(c4)CC[C@]5(C)O)nc3n12 (single isomer, unassigned) [Example 68] | 10 to 30 µM
[2H]C([2H])([2H])N1C(=O)c2cccc(OC(F)F)c2[C@H]2C[C@@H]1c1nc3ccc(-c4cnc5c(c4)OCC[C@@]5(C)O)nc3n12 (single isomer, unassigned) [Example 69] | 10 to 30 µM
[2H]C([2H])([2H])N1C(=O)c2cccc(OC(F)F)c2[C@H]2C[C@@H]1c1nc3ccc(-c4cnc5c(c4)OCC[C@]5(C)O)nc3n12 (single isomer, unassigned) [Example 70] | 0.1 to 1 µM
CN1C(=O)c2cccc(OC(F)F)c2[C@H]2C[C@@H]1c1nc3ccc(-c4cnc5c(c4)CCC5(C)O)cc3n12 (stereo partly drawn) [Example 1, (1R,11R)-18-(difluoromethoxy)-5-{7-hydroxy-7-methyl-5H,6H-cyclopenta[b]pyridin-3-yl}-12-methyl-2,9,12-triazapentacyclo[9.8.1.0^{2,10}.0^{3,8}.0^{14,19}]icosa-3(8),4,6,9,14(19),15,17-heptaen-13-one] | < 0.1 µM
CN1C(=O)c2cccc(OC(F)F)c2[C@H]2C[C@@H]1c1nc3ccc(-c4ccc5c(c4)CC[C@@H]5N)cc3n12 [Example 2, (1R,11R)-5-[(1S)-1-amino-2,3-dihydro-1H-inden-5-yl]-18-(difluoromethoxy)-12-methyl-2,9,12-triazapentacyclo[9.8.1.0^{2,10}.0^{3,8}.0^{14,19}]icosa-3(8),4,6,9,14(19),15,17-heptaen-13-one] | < 0.1 µM
